SMILES strings stand for the structures.

The values that follow come from US5260298A, “Imidazatriazoloquinazoline compounds and their use” (Novo Nordisk A/S, priority 1991, dated 1993).

The subject of the experiment is benzodiazepine receptors. The experiment in a line: in vivo displacement of 3H-flunitrazepam binding from benzodiazepine receptors in a living brain. To be noted: dose which reduces specific binding of 3H-flunitrazepam to benzodiazepine receptors in a living brain to 50% of the control value. From the text:
The pharmaceutical properties of the compounds of the invention can be illustrated by determining their capability for displacing radioactive labelled flunitrazepam from benzodiazepine receptors.
The displacement activity of the compounds of the invention may be found by determining the ED50 value. The ED50 value represents the dose (mg/kg) of a test substance which causes the specific binding of ^3 H-flunitrazepam to benzodiazepine receptors in a living brain to be reduced to 50% of the control value.
Such an in vivo test is carried out as described in U.S. Pat. No. 4,774,245.
On the technique in general: In a radioligand displacement assay an active substance lowers the binding of a labelled ligand.

The ED50 is the midpoint of the dose-response relation. Lower therefore signals greater potency. Take `c1ccc2c(c1)c1ncnn1c1c(-c3nc(C4CC4)no3)ncn21` [Compound 3, 5-(3-cyclopropyl-1,2,4-oxadiazol-5-yl)-imidazo[1,5-a]-[1,2,4]triazolo[1,5-c]quinazoline]: the ED50 is recorded as 0.16 mg/kg.
In turn, `Clc1cccc2c1c1ncnn1c1c(-c3nc(C4CC4)no3)ncn21` [Compound 5, 12-chloro-5-(3-cyclopropyl-1,2,4-oxadiazol-5-yl)-imidazo[1,5-a][1,2,4]triazolo[1,5-c]quinazoline] came in with an ED50 of 0.30 mg/kg.
